One assay concerns 97 kinases. The assay can be described thus: KINOMEscan scanEDGE, whole panel. The following applies: 10 μM. The class given is binding. The method, then:
Compounds were screened at 10 μM using the DiscoverX KinomeSCAN™ assay. Results are reported as the % activity relative to the vehicle (i.e., DMSO) control, where lower values indicate higher affinity (see Table 1 for full scan data). The activity of HTW_A_8 fumarate at PIK3CG was minimal (33%) and barely met the threshold for inclusion. […] Data for harmine were obtained from a previous report.
(§1) Kinome Scan. Compound HTW_A_8 fumarate was screened against 97 kinases at a single concentration of 10 μM at Eurofins DiscoverX using their KINOMEscan™ scanEDGE assay. The results are reported as the % activity relative to DMSO control, where lower values indicate higher affinity. See Table 1 for the full kinome profile.

For another assay, the target named is T1, EGFR (Homo sapiens, UniProt P00533).
T1 construct: purchased Eurofins DiscoverX
T1 sequence (P00533 25-1210): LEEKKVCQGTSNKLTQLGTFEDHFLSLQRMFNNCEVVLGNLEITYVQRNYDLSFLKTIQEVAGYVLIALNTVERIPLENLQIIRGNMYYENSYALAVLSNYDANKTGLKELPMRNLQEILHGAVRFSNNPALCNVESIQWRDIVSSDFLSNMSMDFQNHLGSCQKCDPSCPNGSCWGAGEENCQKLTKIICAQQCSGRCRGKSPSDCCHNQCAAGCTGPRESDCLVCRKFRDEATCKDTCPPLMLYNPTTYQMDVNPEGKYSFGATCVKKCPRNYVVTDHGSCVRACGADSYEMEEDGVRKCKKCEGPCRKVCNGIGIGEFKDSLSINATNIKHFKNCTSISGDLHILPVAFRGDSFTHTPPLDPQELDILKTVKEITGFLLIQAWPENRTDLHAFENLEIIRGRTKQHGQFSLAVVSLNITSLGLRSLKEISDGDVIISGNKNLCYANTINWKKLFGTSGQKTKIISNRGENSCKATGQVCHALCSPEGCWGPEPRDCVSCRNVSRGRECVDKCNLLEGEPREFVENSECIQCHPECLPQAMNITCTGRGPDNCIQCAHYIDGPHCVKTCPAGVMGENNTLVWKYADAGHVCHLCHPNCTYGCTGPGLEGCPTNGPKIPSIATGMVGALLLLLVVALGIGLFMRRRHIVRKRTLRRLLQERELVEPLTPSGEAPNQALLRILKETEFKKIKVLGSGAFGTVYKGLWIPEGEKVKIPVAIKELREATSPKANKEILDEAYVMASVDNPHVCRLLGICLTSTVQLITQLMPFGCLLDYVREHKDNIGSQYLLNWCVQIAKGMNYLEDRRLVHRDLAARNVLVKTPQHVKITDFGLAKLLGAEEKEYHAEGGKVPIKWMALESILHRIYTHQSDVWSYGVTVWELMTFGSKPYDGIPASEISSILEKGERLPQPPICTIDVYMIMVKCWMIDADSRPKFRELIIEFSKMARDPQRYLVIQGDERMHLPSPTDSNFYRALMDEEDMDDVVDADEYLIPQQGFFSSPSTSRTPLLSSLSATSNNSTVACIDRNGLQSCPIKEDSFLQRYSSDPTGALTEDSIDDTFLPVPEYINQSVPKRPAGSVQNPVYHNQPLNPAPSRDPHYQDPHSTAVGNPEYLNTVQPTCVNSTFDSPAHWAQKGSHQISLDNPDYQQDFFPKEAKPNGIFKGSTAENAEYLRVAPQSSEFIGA
The assay can be described thus: KINOMEscan scanEDGE. The class given is binding. The following applies: read-out: Percent Control. As for the experimental part: as §1

For another assay, the target named is T2, AURKA (Homo sapiens, UniProt O14965).
T2 construct: purchased Eurofins DiscoverX
The assay can be described thus: KINOMEscan scanEDGE. The following applies: read-out: Percent Control. The class given is binding. The method, then: as §1

Assay [1] has as its target T3, EPHA2 (Homo sapiens, UniProt P29317).
T3 construct: purchased Eurofins DiscoverX
Put plainly: KINOMEscan scanEDGE. Type of assay: binding. The following applies: read-out: Percent Control. The method, then:
as §1

A further assay deals with T4, KIT(D816V) (Homo sapiens, UniProt P10721, D816V).
T4 construct: purchased Eurofins DiscoverX
T4 sequence (P10721 26-976 D816V): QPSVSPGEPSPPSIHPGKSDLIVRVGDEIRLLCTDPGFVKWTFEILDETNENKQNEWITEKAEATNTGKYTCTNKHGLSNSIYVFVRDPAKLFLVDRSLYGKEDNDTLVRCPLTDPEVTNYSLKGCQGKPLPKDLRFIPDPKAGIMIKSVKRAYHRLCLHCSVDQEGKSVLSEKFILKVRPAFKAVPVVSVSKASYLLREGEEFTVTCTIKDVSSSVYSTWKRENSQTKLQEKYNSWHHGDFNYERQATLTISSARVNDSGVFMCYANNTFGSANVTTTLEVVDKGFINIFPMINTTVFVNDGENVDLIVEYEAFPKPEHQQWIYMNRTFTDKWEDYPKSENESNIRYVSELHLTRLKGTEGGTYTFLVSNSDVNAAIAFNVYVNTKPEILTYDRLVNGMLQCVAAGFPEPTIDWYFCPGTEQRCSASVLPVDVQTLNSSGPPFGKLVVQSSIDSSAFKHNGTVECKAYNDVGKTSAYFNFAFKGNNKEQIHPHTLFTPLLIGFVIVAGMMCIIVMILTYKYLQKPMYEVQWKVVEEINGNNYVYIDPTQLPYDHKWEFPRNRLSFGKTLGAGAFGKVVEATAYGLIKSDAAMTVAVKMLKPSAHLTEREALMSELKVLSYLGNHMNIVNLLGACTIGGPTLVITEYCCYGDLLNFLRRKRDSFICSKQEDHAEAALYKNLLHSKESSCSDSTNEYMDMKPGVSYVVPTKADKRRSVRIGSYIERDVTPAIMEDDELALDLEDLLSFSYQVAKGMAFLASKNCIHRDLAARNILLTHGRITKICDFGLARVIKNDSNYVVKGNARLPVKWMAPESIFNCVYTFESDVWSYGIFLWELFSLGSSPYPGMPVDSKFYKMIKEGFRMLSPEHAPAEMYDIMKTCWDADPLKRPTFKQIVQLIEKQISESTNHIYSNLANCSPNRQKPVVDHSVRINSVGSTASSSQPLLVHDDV
Put plainly: KINOMEscan scanEDGE. The following applies: read-out: Percent Control. Type of assay: binding. The method, then:
as §1

The target of another assay is T5, PCTK1 (Homo sapiens, UniProt Q00536).
T5 construct: purchased Eurofins DiscoverX (KINOMEscan scanEDGE service)
Put plainly: KINOMEscan scanEDGE. The following applies: read-out: Percent Control. Type of assay: binding. As for the experimental part:
as §1

The target of another assay is T6, DCAMKL1 (Homo sapiens, UniProt O15075).
T6 construct: purchased Eurofins DiscoverX
T6 sequence (O15075 whole entry): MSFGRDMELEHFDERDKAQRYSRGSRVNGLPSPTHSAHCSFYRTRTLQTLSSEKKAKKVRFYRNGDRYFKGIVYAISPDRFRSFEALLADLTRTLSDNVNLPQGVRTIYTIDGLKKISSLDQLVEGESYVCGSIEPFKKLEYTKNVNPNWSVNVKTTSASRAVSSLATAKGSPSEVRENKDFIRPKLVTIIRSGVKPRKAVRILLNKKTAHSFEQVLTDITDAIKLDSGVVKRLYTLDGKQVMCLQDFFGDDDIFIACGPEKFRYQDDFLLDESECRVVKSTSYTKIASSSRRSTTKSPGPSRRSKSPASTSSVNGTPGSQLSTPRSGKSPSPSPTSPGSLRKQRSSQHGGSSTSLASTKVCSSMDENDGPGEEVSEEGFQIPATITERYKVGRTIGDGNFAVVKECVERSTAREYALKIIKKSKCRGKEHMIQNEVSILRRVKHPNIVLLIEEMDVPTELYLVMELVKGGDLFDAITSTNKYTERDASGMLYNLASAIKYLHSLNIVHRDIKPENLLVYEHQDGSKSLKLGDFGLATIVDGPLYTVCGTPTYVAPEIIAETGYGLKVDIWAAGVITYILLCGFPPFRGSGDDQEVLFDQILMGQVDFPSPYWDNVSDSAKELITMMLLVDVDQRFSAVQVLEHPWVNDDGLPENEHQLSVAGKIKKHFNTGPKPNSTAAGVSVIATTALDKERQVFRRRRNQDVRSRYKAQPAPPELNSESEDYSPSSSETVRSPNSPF
Put plainly: KINOMEscan scanEDGE. Type of assay: binding. The following applies: read-out: Percent Control. The method, then:
as §1

Assay [2] addresses T7, MEK1 (Homo sapiens, UniProt Q02750).
T7 construct: purchased Eurofins DiscoverX (KINOMEscan scanEDGE service)
The assay can be described thus: KINOMEscan scanEDGE. The following applies: read-out: Percent Control. Type of assay: binding. The method, then:
as §1

Another assay has as its target T8, JNK2 (Homo sapiens, UniProt P45984).
T8 construct: purchased Eurofins DiscoverX
The assay can be described thus: KINOMEscan scanEDGE. The class given is binding. The note with it: read-out: Percent Control. The method, then:
as §1

Assay [3] deals with T9, JAK2(JH1domain-catalytic) (Homo sapiens, UniProt O60674).
T9 construct: JAK2(JH1domain-catalytic); purchased Eurofins DiscoverX
T9 sequence (O60674 849-1124 limits assumed): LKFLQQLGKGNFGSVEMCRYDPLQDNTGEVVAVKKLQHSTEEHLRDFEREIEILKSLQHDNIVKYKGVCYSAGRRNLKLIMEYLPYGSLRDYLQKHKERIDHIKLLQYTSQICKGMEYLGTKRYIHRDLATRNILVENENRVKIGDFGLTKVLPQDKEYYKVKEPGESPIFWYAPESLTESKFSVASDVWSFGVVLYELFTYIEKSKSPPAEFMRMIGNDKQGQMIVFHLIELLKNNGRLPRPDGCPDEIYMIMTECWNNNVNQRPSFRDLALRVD
The assay can be described thus: KINOMEscan scanEDGE. The class given is binding. The following applies: read-out: Percent Control. As for the experimental part: as §1

Assay [4] has as its target T10, ABL1(T315I)-phosphorylated (Homo sapiens, UniProt P00519, T315I).
T10 construct: purchased Eurofins DiscoverX
Put plainly: KINOMEscan scanEDGE. Type of assay: binding. The note with it: read-out: Percent Control. As for the experimental part:
as §1

A further assay concerns the target T11, MAP3K4 (Homo sapiens, UniProt Q9Y6R4).
T11 construct: purchased Eurofins DiscoverX (KINOMEscan scanEDGE service)
The assay can be described thus: KINOMEscan scanEDGE. The class given is binding. The following applies: read-out: Percent Control. The method, then: as §1

For the next assay, the target named is T12, AKT2 (Homo sapiens, UniProt P31751).
T12 construct: purchased Eurofins DiscoverX
Put plainly: KINOMEscan scanEDGE. The following applies: read-out: Percent Control. The class given is binding. The method, then: as §1

Another assay has as its target T13, AKT1 (Homo sapiens, UniProt P31749).
T13 construct: purchased Eurofins DiscoverX
The assay can be described thus: KINOMEscan scanEDGE. Type of assay: binding. The note with it: read-out: Percent Control. As for the experimental part: as §1

For a further assay, the target named is T14, MAPKAPK2 (Homo sapiens, UniProt P49137).
T14 construct: purchased Eurofins DiscoverX (KINOMEscan scanEDGE service)
The assay can be described thus: KINOMEscan scanEDGE. The note with it: read-out: Percent Control. The class given is binding. The method, then:
as §1

The next assay addresses T15, CSF1R (Homo sapiens, UniProt P07333).
T15 construct: purchased Eurofins DiscoverX
The assay can be described thus: KINOMEscan scanEDGE. The class given is binding. The following applies: read-out: Percent Control. As for the experimental part: as §1

In another assay the target is T16, MKNK1 (Homo sapiens, UniProt Q9BUB5).
T16 construct: purchased Eurofins DiscoverX (KINOMEscan scanEDGE service)
The note with it: 10 μM; cited from earlier work.

The next assay deals with T17, CSNK1G2 (Homo sapiens, UniProt P78368).
T17 construct: purchased Eurofins DiscoverX
The note with it: 10 μM; cited from earlier work.

The next assay addresses T18, ROCK2 (Homo sapiens, UniProt O75116).
T18 construct: purchased Eurofins DiscoverX KINOMEscan scanEDGE
The note with it: 10 μM; cited from earlier work.

Another assay concerns the target T19, BMPR2 (Homo sapiens, UniProt Q13873).
T19 construct: purchased Eurofins DiscoverX
The note with it: 10 μM; cited from earlier work.

A further assay addresses T20, TIE2 (Homo sapiens, UniProt Q02763).
T20 construct: purchased Eurofins DiscoverX KINOMEscan scanEDGE
The note with it: 10 μM; cited from earlier work.

The target in another assay is T21, ERBB4 (Homo sapiens, UniProt Q15303).
T21 construct: purchased Eurofins DiscoverX
The following applies: 10 μM; cited from earlier work.

The next assay concerns the target T22, SRPK3 (Homo sapiens, UniProt Q9UPE1).
T22 construct: purchased Eurofins DiscoverX KINOMEscan scanEDGE
The note with it: 10 μM; cited from earlier work.

For another assay, the target named is T23, ACVR1B (Homo sapiens, UniProt P36896).
T23 construct: purchased Eurofins DiscoverX
The following applies: 10 μM; cited from earlier work.

A further assay addresses T24, PDGFRB (Homo sapiens, UniProt P09619).
T24 construct: purchased Eurofins DiscoverX (KINOMEscan scanEDGE service)
The following applies: 10 μM; cited from earlier work.

Assay [5] has as its target T7, MEK1. The note with it: 10 μM; cited from earlier work.
Another assay addresses T25, CDK3 (Homo sapiens, UniProt Q00526).
T25 construct: purchased Eurofins DiscoverX
The note with it: 10 μM; cited from earlier work.

A further assay addresses T26, PIM3 (Homo sapiens, UniProt Q86V86).
T26 construct: purchased Eurofins DiscoverX (KINOMEscan scanEDGE service)
The following applies: 10 μM; cited from earlier work.

A further assay concerns the target T27, ALK (Homo sapiens, UniProt Q9UM73).
T27 construct: purchased Eurofins DiscoverX
The note with it: 10 μM; cited from earlier work.

Another assay has as its target T28, PLK3 (Homo sapiens, UniProt Q9H4B4).
T28 construct: purchased Eurofins DiscoverX KINOMEscan scanEDGE
The following applies: 10 μM; cited from earlier work.

Another assay addresses T29, PIK3CG (Homo sapiens, UniProt P48736).
T29 construct: purchased Eurofins DiscoverX (KINOMEscan scanEDGE service)
The note with it: 10 μM; cited from earlier work.

Assay [6] has as its target T3, EPHA2. The following applies: 10 μM; cited from earlier work.
The target in another assay is T30, GSK3B (Homo sapiens, UniProt P49841).
T30 construct: purchased Eurofins DiscoverX
The note with it: 10 μM; cited from earlier work.

Another assay addresses T31, RIOK2 (Homo sapiens, UniProt Q9BVS4).
T31 construct: purchased Eurofins DiscoverX KINOMEscan scanEDGE
The following applies: 10 μM; cited from earlier work.

The target of the next assay is T32, ABL1-nonphosphorylated (Homo sapiens, UniProt P00519).
T32 construct: purchased Eurofins DiscoverX
The note with it: 10 μM; cited from earlier work.

For a further assay, the target named is T33, IKK-alpha (Homo sapiens, UniProt O15111).
T33 construct: purchased Eurofins DiscoverX
The note with it: 10 μM; cited from earlier work.

T3 sequence (P29317 24-976): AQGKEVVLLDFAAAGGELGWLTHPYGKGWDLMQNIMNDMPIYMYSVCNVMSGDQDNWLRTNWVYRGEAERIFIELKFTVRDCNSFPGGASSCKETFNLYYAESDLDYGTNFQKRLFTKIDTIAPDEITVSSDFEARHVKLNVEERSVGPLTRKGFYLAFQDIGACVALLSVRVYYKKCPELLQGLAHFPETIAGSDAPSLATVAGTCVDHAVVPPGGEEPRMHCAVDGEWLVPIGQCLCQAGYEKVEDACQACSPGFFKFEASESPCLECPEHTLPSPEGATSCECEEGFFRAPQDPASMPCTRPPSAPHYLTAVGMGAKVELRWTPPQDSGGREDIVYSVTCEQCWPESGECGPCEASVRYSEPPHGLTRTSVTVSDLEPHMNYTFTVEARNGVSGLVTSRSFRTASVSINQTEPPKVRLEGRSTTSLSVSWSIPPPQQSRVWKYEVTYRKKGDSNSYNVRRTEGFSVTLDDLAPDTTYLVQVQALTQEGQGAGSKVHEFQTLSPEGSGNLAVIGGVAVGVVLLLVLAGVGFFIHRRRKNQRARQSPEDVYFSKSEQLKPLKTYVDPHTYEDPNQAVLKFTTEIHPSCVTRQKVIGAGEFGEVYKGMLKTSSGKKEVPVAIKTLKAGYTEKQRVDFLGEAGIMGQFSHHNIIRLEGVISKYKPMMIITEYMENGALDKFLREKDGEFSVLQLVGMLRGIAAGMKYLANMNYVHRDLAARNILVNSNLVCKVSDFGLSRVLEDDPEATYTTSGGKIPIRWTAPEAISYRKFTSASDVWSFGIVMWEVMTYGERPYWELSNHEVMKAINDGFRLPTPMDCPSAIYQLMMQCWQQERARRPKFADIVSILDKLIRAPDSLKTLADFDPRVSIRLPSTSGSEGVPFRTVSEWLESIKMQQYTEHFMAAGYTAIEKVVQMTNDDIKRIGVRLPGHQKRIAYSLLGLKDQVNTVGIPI
T7 sequence (Q02750 whole entry): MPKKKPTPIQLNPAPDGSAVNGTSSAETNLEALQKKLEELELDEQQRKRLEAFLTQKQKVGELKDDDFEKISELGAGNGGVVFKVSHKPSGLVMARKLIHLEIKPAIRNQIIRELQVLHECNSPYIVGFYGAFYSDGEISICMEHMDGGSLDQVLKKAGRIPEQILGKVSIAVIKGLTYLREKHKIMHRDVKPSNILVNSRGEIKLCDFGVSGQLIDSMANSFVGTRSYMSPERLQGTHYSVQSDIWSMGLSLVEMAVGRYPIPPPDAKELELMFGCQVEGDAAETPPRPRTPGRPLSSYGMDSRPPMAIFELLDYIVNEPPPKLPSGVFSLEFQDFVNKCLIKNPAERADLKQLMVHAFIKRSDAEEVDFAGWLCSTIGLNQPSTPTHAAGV
T22 sequence (Q9UPE1 whole entry): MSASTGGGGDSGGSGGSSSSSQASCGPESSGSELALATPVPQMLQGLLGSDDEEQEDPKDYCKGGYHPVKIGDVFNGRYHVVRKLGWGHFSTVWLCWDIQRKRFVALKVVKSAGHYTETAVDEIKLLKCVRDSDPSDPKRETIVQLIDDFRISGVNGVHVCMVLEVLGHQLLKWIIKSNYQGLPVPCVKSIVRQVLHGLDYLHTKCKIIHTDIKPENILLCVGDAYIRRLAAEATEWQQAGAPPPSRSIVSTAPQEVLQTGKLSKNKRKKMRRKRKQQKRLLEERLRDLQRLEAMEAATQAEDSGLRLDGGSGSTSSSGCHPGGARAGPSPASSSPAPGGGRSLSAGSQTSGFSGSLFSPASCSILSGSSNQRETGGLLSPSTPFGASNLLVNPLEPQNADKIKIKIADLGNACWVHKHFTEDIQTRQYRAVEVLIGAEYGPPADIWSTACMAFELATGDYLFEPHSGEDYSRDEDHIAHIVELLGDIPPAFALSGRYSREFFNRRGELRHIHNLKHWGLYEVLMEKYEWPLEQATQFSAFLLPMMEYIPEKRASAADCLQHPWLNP

Take `COc1ccc2c3ccnc(C)c3n(CCN(C)C)c2c1.O=C(O)/C=C/C(=O)O` [HTW_A_8 fumarate, 2-(7-methoxy-1-methyl-9H-pyrido[3,4-b]indol-9-yl)-N,N-dimethylethan-1-amine Fumarate Salt (2:3)]: the “activity at other kinases of the LIPID family (besides PIK3CG)” value in the assay with 97 kinases is “did not exhibit activity for any other kinase in the LIPID family”. Also, the kinase family selectivity entry with 97 kinases (97 kinases) was “selective for kinases in the CMGC family”. For the same compound, the remaining binding at 10 µM amounted to 84% on EGFR; 100% at AURKA; 88% at EPHA2 [1]; 100% at KIT(D816V); 96% at PCTK1; 98% at DCAMKL1. Also, the remaining binding at 10 µM turned out to be 87% at MEK1 [2]; 81% on JNK2; 100% in [3]; 100% in [4]; 100% at MAP3K4; 100% at AKT2. For the same compound, the remaining binding at 10 µM at AKT1 turned out to be 96%; on MAPKAPK2, 99%; on CSF1R, 98%.
Take `COc1ccc2c(c1)[nH]c1c(C)nccc12` [Harmine, harmine]: the “Percent Control” value is listed as 79% on MKNK1; 19% at CSNK1G2; 43% on ROCK2; 96% on BMPR2; 94% on TIE2; 83% at ERBB4. Besides, the “Percent Control” value at SRPK3 was 84%; at ACVR1B, 91%; on PDGFRB it was 84%; on MEK1 [5], 79%; on CDK3, 100%; on PIM3, 43%. Moreover, the “Percent Control” value on ALK is 92%; on PLK3, 75%; on PIK3CG, 49%; at EPHA2 [6] it was 93%; at GSK3B, 71%; at RIOK2, 74%. The entries for the “Percent Control” value at ABL1-nonphosphorylated and at IKK-alpha were 90% and 81%, respectively.
